This is an account of results in article PMC11425824 (ACS Omega, 2024).

pIC50: −log10 of the molar value.

In one data set the target is CDK1 (Homo sapiens, UniProt P06493). Description: In vitro CDK1 kinase assay. Format: biochemical.
The conditions of data set [1]: cited from earlier work.
The next data set relates to primary hepatocytes. The note with it: cited from earlier work.
For data set [2] the following is noted: cited from earlier work. The source holds these as a separate data set.

Chain of CDK1 (P20248 whole entry): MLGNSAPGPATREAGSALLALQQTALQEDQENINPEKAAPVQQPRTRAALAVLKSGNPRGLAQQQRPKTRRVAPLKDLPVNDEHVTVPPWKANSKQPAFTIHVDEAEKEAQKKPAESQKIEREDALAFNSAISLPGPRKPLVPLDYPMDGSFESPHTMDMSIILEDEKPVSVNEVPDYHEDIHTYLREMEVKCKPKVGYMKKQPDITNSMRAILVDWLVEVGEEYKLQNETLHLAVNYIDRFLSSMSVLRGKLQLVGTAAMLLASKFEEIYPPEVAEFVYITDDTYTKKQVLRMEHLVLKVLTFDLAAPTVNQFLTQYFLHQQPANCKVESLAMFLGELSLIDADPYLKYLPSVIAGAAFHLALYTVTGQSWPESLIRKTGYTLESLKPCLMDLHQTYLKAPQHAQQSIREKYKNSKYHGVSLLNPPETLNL
Chain of CDK1 (P06493 whole entry): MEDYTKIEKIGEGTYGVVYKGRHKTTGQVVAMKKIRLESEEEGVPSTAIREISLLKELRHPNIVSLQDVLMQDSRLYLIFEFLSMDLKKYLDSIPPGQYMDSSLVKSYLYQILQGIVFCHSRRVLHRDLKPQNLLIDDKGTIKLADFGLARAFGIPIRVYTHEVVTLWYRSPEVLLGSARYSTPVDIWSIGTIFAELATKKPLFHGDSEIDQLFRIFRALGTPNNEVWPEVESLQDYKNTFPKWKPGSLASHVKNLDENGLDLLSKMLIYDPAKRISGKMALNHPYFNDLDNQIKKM

`CC(C)OC(=O)[C@H](C)N[P@](=O)(CO[C@H](C)Cn1cnc2c(N)ncnc21)Oc1ccccc1` [DB_1, tenofovir alafenamide] gave a pIC50 against CDK1 of 5.55. In data set [1], the Cytotoxicity profile entry is “minimal cytotoxic effects” and the Mitochondrial toxicity entry is recorded as “low potential for mitochondrial toxicity”.
Take `CCO[C@@H](Cc1ccc(OCCc2ccc(OS(C)(=O)=O)cc2)cc1)C(=O)O` [DB_6, tesaglitazar]: the negative-log IC50 (pIC50) at CDK1 is 5.36. For the same compound, the “Toxicity to primary hepatocytes” value in the data set on primary hepatocytes is given as “no significant toxicity”.
On CDK1, `Cc1cc2cc(Oc3ccnc(Nc4cccc(CS(=O)(=O)NCCN(C)C)c4)n3)ccc2[nH]1` [DB_7, Surufatinib] gave a pIC50 of 5.23.
On to `O=C1NC(=NCc2cccs2)S/C1=C\c1ccc2ncccc2c1` [RO-3306], for which, at CDK1 (1 μM), the CDK1 activity result is recorded as “around 20%”. On CDK1 (higher concentrations (10 and 100 μM)), this compound yielded a CDK1 inhibition of 100%. Also, the “Clearance from the blood plasma” value in data set [2] is “rapid clearance”.
